Earlier results in US20070218155A1, “Methods and compositions for treating dyslipidaemia” (priority 2004, published 2007).

How the values were obtained:
[1] = tested on: DGAT activity in intact Raji cells; settings: Tabata et al.; cited from earlier work
[2] = literature statement; cited from earlier work
[3] = molecular target: T1, HMG CoA reductase (Homo sapiens, UniProt P04035); settings: HepG2 cells; comparison value; cited from earlier work
T1 construct: host or cells: HepG2
T1 sequence (P04035 1-888): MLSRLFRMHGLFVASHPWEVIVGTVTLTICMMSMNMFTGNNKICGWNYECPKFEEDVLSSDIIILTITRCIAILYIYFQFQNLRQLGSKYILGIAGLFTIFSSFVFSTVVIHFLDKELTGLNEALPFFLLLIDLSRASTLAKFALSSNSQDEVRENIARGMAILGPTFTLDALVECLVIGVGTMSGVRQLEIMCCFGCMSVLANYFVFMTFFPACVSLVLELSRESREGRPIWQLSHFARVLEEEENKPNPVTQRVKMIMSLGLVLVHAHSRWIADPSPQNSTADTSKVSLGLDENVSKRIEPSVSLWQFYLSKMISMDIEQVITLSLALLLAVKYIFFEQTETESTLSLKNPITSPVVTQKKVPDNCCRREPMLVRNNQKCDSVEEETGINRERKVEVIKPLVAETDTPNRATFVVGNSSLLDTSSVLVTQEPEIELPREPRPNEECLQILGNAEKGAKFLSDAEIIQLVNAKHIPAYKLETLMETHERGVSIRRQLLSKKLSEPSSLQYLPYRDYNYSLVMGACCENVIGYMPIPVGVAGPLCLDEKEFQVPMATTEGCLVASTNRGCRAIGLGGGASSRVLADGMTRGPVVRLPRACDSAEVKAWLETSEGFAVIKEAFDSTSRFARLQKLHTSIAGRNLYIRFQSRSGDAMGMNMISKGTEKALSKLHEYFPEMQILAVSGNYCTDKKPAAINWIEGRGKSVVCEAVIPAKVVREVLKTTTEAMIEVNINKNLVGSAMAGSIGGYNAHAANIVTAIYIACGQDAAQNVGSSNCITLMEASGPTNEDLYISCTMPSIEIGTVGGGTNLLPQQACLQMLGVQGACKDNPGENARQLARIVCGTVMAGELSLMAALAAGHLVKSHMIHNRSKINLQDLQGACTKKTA

Row | Compound | inhibition of triacylglycerol formation / DGAT activity in intact Raji cells [1] | estrogenic activity [2] | inhibition of HMG CoA reductase [3]
1 | COc1cc(O)c(CC=C(C)C)c(O)c1C(=O)/C=C/c1ccc(O)cc1 [xanthohumol] | inhibited DGAT activity specifically in human cells | does not exhibit estrogenic activity | 
2 | CC(C)c1c(C(=O)Nc2ccccc2)c(-c2ccccc2)c(-c2ccc(F)cc2)n1CC[C@@H](O)C[C@@H](O)CC(=O)O [Atorvastatin] |  |  | about 96%
3 | CC(C)=CCc1c(O)cc(O)c2c1O[C@H](c1ccc(O)cc1)CC2=O [8-prenylnaringenin, 8-prenylnaringenin] |  | potent estrogenic activity | 
